Measured values taken from US10131652B2, “Pyrimidinyloxy benzene derivatives as herbicides” (E. I. DU PONT DE NEMOURS AND COMPANY, priority 2014, dated 2018).
Where two headings read alike, the source gives them in different places.

Legend:
Assay in all cases: Test F pre-/postemergence plant response
Format in all cases: in vivo
[1] = system: lambsquarters (Chenopodium album); details: Chenopodium album, pre-emergence, scale 0 to 100, read-out: Plant response rating, Lambsquarters
In short: (§1)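 Herbicidal effect judged by eye against controls, scored 0–100 (complete control = 100). Applications: pre-emergence onto seeded silt loam, post-emergence onto 2–18 cm seedlings; greenhouse, 14–21 days.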

[2] = system: Brazilian crabgrass (Digitaria horizontalis); details: Digitaria horizontalis, scale 0 to 100, read-out: Plant response rating, Crabgrass, Brazil
In short: as §1

[3] = system: nightshade (eastern black nightshade, Solanum ptycanthum); details: Solanum, pre-emergence, scale 0 to 100, read-out: Plant response rating, Nightshade
In short: as §1

[4] = system: barnyardgrass (Echinochloa crus-galli); details: Echinochloa crus-galli, scale 0 to 100, read-out: Plant response rating, Barnyardgrass
In short: as §1

[5] = system: large (Lg) crabgrass (Digitaria sanguinalis); details: Digitaria sanguinalis, pre-emergence, scale 0 to 100, read-out: Plant response rating, Crabgrass, Large
In short: as §1

[6] = system: Italian ryegrass (Lolium multiflorum); details: Lolium multiflorum, scale 0 to 100, read-out: Plant response rating, Ryegrass, Italian; for pest or weed control at 16 g/ha: 16 g ai/ha; for pest or weed control at 31 g/ha: 31 g ai/ha; for pest or weed control at 125 g/ha: 125 g ai/ha
In short: as §1

[7] = system: waterhemp (common waterhemp, Amaranthus rudis); details: Amaranthus tuberculatus, scale 0 to 100, read-out: Plant response rating, Waterhemp
In short: as §1

[8] = system: yellow nutsedge (Cyperus esculentus); details: Cyperus, pre-emergence, scale 0 to 100, read-out: Plant response rating, Nutsedge, Yellow
In short: as §1

[9] = system: sandbur (southern sandbur, Cenchrus echinatus); details: Cenchrus echinatus, scale 0 to 100, read-out: Plant response rating, Sandbur
In short: as §1

[10] = system: green foxtail (Setaria viridis); details: Setaria viridis, pre-emergence, scale 0 to 100, read-out: Plant response rating, Foxtail, Green
In short: as §1

[11] = system: ragweed (common ragweed, Ambrosia elatior); details: Ambrosia artemisiifolia, pre-emergence, scale 0 to 100, read-out: Plant response rating, Ragweed
In short: as §1

[12] = system: morningglory (Ipomoea coccinea); details: Ipomoea, pre-emergence, scale 0 to 100, read-out: Plant response rating, Morningglory
In short: as §1

[13] = system: johnsongrass (Sorghum halepense); details: Sorghum halepense, pre-emergence, scale 0 to 100, read-out: Plant response rating, Johnsongrass
In short: as §1

[14] = system: dayflower (Virginia (VA) dayflower, Commelina virginica); details: Commelina virginica, scale 0 to 100, read-out: Plant response rating, Dayflower, VA
In short: as §1

[15] = system: hairy beggarticks (Bidens pilosa); details: Bidens pilosa, scale 0 to 100, read-out: Plant response rating, Beggarticks
In short: as §1

[16] = system: wild poinsettia (Euphorbia heterophylla); details: Euphorbia heterophylla, scale 0 to 100, read-out: Plant response rating, Poinsettia, Wild
In short: as §1

[17] = post-emergence, 8 g ai/ha Postemergence
[18] = post-emergence, 16 g ai/ha Postemergence
[19] = post-emergence, 31 g ai/ha Postemergence
[20] = post-emergence, 62 g ai/ha Postemergence
[21] = post-emergence, 125 g ai/ha Postemergence
[22] = pre-emergence, 8 g ai/ha Preemergence
[23] = pre-emergence, 16 g ai/ha Preemergence
[24] = pre-emergence, 31 g ai/ha Preemergence
[25] = pre-emergence, 62 g ai/ha Preemergence
[26] = pre-emergence, 125 g ai/ha Preemergence

FC(F)c1cc(-c2ccccc2Oc2ncc(Br)cn2)no1 [Compound 62, 5-bromo-2-[2-[5-(difluoromethyl)-3-isoxazolyl]phenoxy]pyrimidine]
pest or weed control at 8 g/ha ([1]; 8 g ai/ha Preemergence): 70% | pest or weed control at 16 g/ha ([1]; 16 g ai/ha, Preemergence): 90% | pest or weed control at 31 g/ha ([1]; 31 g ai/ha, Preemergence): 95% | pest or weed control at 125 g/ha ([1]; 125 g ai/ha, Preemergence): 100% | pest or weed control at 62 g/ha ([1]; Preemergence): 95% | pest or weed control at 8 g/ha [2, 17]: 0% | pest or weed control at 16 g/ha [2, 18]: 0% | pest or weed control at 31 g/ha [2, 19]: 10% | pest or weed control at 62 g/ha [2, 20]: 15% | pest or weed control at 125 g/ha [2, 21]: 10% | pest or weed control at 8 g/ha [2, 22]: 0% | pest or weed control at 16 g/ha [2, 23]: 0% | pest or weed control at 31 g/ha [2, 24]: 75% | pest or weed control at 62 g/ha [2, 25]: 100% | pest or weed control at 125 g/ha [2, 26]: 100% | pest or weed control at 8 g/ha ([3]; 8 g ai/ha Preemergence): 0% | pest or weed control at 16 g/ha ([3]; 16 g ai/ha Preemergence): 0% | pest or weed control at 31 g/ha ([3]; 31 g ai/ha Preemergence): 70% | pest or weed control at 125 g/ha ([3]; 125 g ai/ha Preemergence): 100% | pest or weed control at 62 g/ha ([3]; Preemergence): 98% | pest or weed control at 8 g/ha [4, 17]: 10% | pest or weed control at 16 g/ha [4, 18]: 15% | pest or weed control at 31 g/ha [4, 19]: 20% | pest or weed control at 62 g/ha [4, 20]: 20% | pest or weed control at 125 g/ha [4, 21]: 20% | pest or weed control at 8 g/ha [4, 22]: 0% | pest or weed control at 16 g/ha [4, 23]: 0% | pest or weed control at 31 g/ha [4, 24]: 0% | pest or weed control at 62 g/ha [4, 25]: 0% | pest or weed control at 125 g/ha [4, 26]: 25% | pest or weed control at 8 g/ha ([5]; 8 g ai/ha Preemergence): 0% | pest or weed control at 16 g/ha ([5]; 16 g ai/ha Preemergence): 0% | pest or weed control at 31 g/ha ([5]; 31 g ai/ha Preemergence): 25% | pest or weed control at 62 g/ha ([5]; 62 g ai/ha Preemergence): 70% | pest or weed control at 125 g/ha ([5]; 125 g ai/ha Preemergence): 98% | pest or weed control at 8 g/ha [6, 17]: 0% | pest or weed control at 16 g/ha ([6]; post-emergence, Postemergence): 0% | pest or weed control at 31 g/ha ([6]; post-emergence, Postemergence): 0% | pest or weed control at 62 g/ha ([6]; post-emergence, 62 g ai/ha, Postemergence): 10% | pest or weed control at 125 g/ha ([6]; post-emergence, Postemergence): 10% | pest or weed control at 8 g/ha [6, 22]: 0% | pest or weed control at 16 g/ha ([6]; pre-emergence, Preemergence): 0% | pest or weed control at 31 g/ha ([6]; pre-emergence, Preemergence): 0% | pest or weed control at 125 g/ha ([6]; pre-emergence, Preemergence): 40% | pest or weed control at 62 g/ha ([6]; pre-emergence, Preemergence): 0% | pest or weed control at 8 g/ha [7, 17]: 80% | pest or weed control at 16 g/ha [7, 18]: 90% | pest or weed control at 31 g/ha [7, 19]: 100% | pest or weed control at 62 g/ha [7, 20]: 100% | pest or weed control at 125 g/ha [7, 21]: 100% | pest or weed control at 8 g/ha [7, 22]: 80% | pest or weed control at 16 g/ha [7, 23]: 85% | pest or weed control at 31 g/ha [7, 24]: 98% | pest or weed control at 125 g/ha [7, 26]: 100% | pest or weed control at 62 g/ha ([7]; pre-emergence, Preemergence): 100% | pest or weed control at 8 g/ha ([8]; 8 g ai/ha Preemergence): 0% | pest or weed control at 16 g/ha ([8]; 16 g ai/ha Preemergence): 0% | pest or weed control at 31 g/ha ([8]; 31 g ai/ha Preemergence): 0% | pest or weed control at 125 g/ha ([8]; 125 g ai/ha Preemergence): 0% | pest or weed control at 62 g/ha ([8]; Preemergence): 0% | pest or weed control at 8 g/ha [9, 17]: 0% | pest or weed control at 16 g/ha [9, 18]: 0% | pest or weed control at 31 g/ha [9, 19]: 0% | pest or weed control at 62 g/ha [9, 20]: 0% | pest or weed control at 125 g/ha [9, 21]: 0% | pest or weed control at 8 g/ha [9, 22]: 0% | pest or weed control at 16 g/ha [9, 23]: 0% | pest or weed control at 31 g/ha [9, 24]: 0% | pest or weed control at 125 g/ha [9, 26]: 35% | pest or weed control at 62 g/ha ([9]; pre-emergence, Preemergence): 0% | pest or weed control at 8 g/ha ([10]; 8 g ai/ha Preemergence): 0% | pest or weed control at 16 g/ha ([10]; 16 g ai/ha, Preemergence): 0% | pest or weed control at 31 g/ha ([10]; 31 g ai/ha, Preemergence): 10% | pest or weed control at 125 g/ha ([10]; 125 g ai/ha, Preemergence): 90% | pest or weed control at 62 g/ha ([10]; Preemergence): 40% | pest or weed control at 8 g/ha ([11]; 8 g ai/ha Preemergence): 0% | pest or weed control at 16 g/ha ([11]; 16 g ai/ha Preemergence): 20% | pest or weed control at 31 g/ha ([11]; 31 g ai/ha Preemergence): 25% | pest or weed control at 125 g/ha ([11]; 125 g ai/ha Preemergence): 35% | pest or weed control at 62 g/ha ([11]; Preemergence): 40% | pest or weed control at 8 g/ha ([12]; 8 g ai/ha Preemergence): 0% | pest or weed control at 16 g/ha ([12]; 16 g ai/ha Preemergence): 0% | pest or weed control at 31 g/ha ([12]; 31 g ai/ha Preemergence): 0% | pest or weed control at 125 g/ha ([12]; 125 g ai/ha Preemergence): 50% | pest or weed control at 62 g/ha ([12]; Preemergence): 0% | pest or weed control at 8 g/ha ([13]; 8 g ai/ha Preemergence): 0% | pest or weed control at 16 g/ha ([13]; 16 g ai/ha Preemergence): 0% | pest or weed control at 31 g/ha ([13]; 31 g ai/ha Preemergence): 20% | pest or weed control at 125 g/ha ([13]; 125 g ai/ha Preemergence): 40% | pest or weed control at 62 g/ha ([13]; Preemergence): 35% | pest or weed control at 8 g/ha [14, 17]: 0% | pest or weed control at 16 g/ha [14, 18]: 0% | pest or weed control at 31 g/ha [14, 19]: 5% | pest or weed control at 62 g/ha [14, 20]: 25% | pest or weed control at 125 g/ha [14, 21]: 65% | pest or weed control at 8 g/ha [14, 22]: 0% | pest or weed control at 16 g/ha [14, 23]: 0% | pest or weed control at 31 g/ha [14, 24]: 0% | pest or weed control at 62 g/ha [14, 25]: 30% | pest or weed control at 125 g/ha [14, 26]: 80% | pest or weed control at 8 g/ha [15, 17]: 5% | pest or weed control at 16 g/ha [15, 18]: 5% | pest or weed control at 31 g/ha [15, 19]: 10% | pest or weed control at 62 g/ha [15, 20]: 50% | pest or weed control at 125 g/ha [15, 21]: 80% | pest or weed control at 8 g/ha [15, 22]: 0% | pest or weed control at 16 g/ha [15, 23]: 0% | pest or weed control at 31 g/ha [15, 24]: 0% | pest or weed control at 62 g/ha [15, 25]: 0% | pest or weed control at 125 g/ha [15, 26]: 0% | pest or weed control at 8 g/ha [16, 17]: 25% | pest or weed control at 16 g/ha [16, 18]: 35% | pest or weed control at 31 g/ha [16, 19]: 40% | pest or weed control at 62 g/ha [16, 20]: 50% | pest or weed control at 125 g/ha [16, 21]: 50% | pest or weed control at 8 g/ha [16, 22]: 0% | pest or weed control at 16 g/ha [16, 23]: 0% | pest or weed control at 31 g/ha [16, 24]: 30% | pest or weed control at 125 g/ha [16, 26]: 35% | pest or weed control at 62 g/ha ([16]; pre-emergence, Preemergence): 25%
